Laboratory results reported in patent US12161829B2 (OCON MEDICAL LTD., priority 2020, dated 2024).

Tested on: endometrium
From the text: Efforts were made to recruit an equal number of women with high endometrial thickness (>7 mm) and low endometrial thickness (<7 mm). On the day of surgery, the subject underwent a vaginal ultrasound, to re-measure the endometrial thickness, and hysteroscopy, to visualize the uterine cavity and the endometrium.
After surgery, the extracted uterus was immediately evaluated by the study pathologist for gross pathology and silver nitrate coverage of the endometrium and was later subjected to pathology (macroscopic analyses of the intra-uterine cavity and microscopic analyses of the multiple sections of the uteri) histopathological evaluations to define the extent of active material endometrium coverage and endometrial ablation.

Compound: O=[N+]([O-])[O-].[Ag+] [silver nitrate]
- Staining of / spillage via the fallopian tubes (30 minutes in uterus, extracted uterus): No staining of the fallopian tubes
- Cervix findings (histology): superficial silver nitrate staining, with no damage to the columnar epithelium and no pathological findings
- Cauterization effect (overall conclusion): elicited the expected cauterization effect
